{
  "source": "patent US20230070338A1",
  "about": "“SHP2 Inhibitor Dosing and Methods of Treating Cancer” (Revolution Medicines, Inc., priority 2020, published 2023)",
  "key": {"[1]": {"test": "RMC-4630-01 phase 1 study: pharmacokinetics in patients", "assay_type": "in vivo, human", "settings": "for AUC(0-t) / Cmax / Tmax / half-life: human, plasma, oral; for Cmax: read-out: Cmax [Mean(CV %)]; for Tmax: read-out: Median Tmax (range)", "from_the_text": "RMC-4630-01 is a phase 1 dose escalation study in patients with advanced cancers that evaluates the safety, pharmacokinetics and pharmacodynamic effects of RMC-4630 as a single agent under two different dose administration schedules; daily dosing and twice weekly dosing.\nThe RMC-4630-01 study was initially designed to evaluate two different schedules: a daily dosing schedule and an intermittent dosing schedule (D1, D4 of every week)."}, "[2]": {"system": "ERK phosphorylation (pERK)", "test": "Pharmacodynamic effect on ERK activation in patients (blood cells, tumor biopsies)", "assay_type": "in vivo, human", "source_text": "FIG. 7A is a graph depicting the H-Score for nuclear and cytoplasmic ERK phosphorylation in cells obtained from each of four patients following treatment with RMC-4630 on a daily dosing schedule provided in FIG. 7C. H score is the product of percentage of tumor cells staining positive for pERK and the intensity of staining per cell. Both nuclear and cytoplasmic pERK are shown.\nPharmacodynamic effects of RMC-4630, comparison of daily and intermittent schedules. Activation of the protein ERK, which is an important protein in the RAS signaling pathway and a substrate for MEK, is a good surrogate for the inhibition of pathway activity by a SHP2 inhibitor. The pharmacodynamic effects of RMC-4630 on activation of ERK were studied in the blood cells of patients being treated with RMC-4630. […] These effects are consistent with engagement and inhibition of the SHP2 target and downstream RAS signaling by RMC-4630.\nPhosphorylation of ERK has been assessed in tumor before, and while receiving, RMC-4630 (FIG. 7)."}, "proliferation": {"system": "proliferation", "test": "Proliferation in vitro", "assay_type": "cell-based", "source_text": "SHP2 inhibition with RMC-4630 inhibits ERK phosphorylation (pERK) and proliferation in vitro. Inhibition of pERK may be used as an assay monitoring or determining efficacy of treatment with a SHP2 inhibitor of the disclosure."}, "[3]": {"settings": "140 mg, 140 mg twice weekly (D1, D4), Cycle/Day 1/1"}, "[4]": {"settings": "140 mg, 140 mg twice weekly (D1, D4), Cycle/Day 1/15"}, "[5]": {"settings": "200 mg, 200 mg twice weekly (D1, D4), Cycle/Day 1/1"}, "[6]": {"settings": "200 mg, 200 mg twice weekly (D1, D4), Cycle/Day 1/15"}},
  "note": "Read-outs that look alike come from different tables or passages of the source.",
  "data": [
    {"smiles": "Cc1nc(N2CCC3(CC2)CO[C@@H](C)[C@H]3N)c(CO)nc1Sc1ccnc(N)c1Cl", "note": "[RMC-4630]", "values": [
      {"measurement": "total exposure over a 24 hour period", "setting": "[1]; 60 mg daily (putative MTD)", "result": 14.6, "unit": "µM·h"},
      {"measurement": "Mean accumulation (AUC0-24 ratio)", "setting": "[1]; 140 mg twice weekly (D1, D4), Cycle/Day 1/15", "result": 1.3},
      {"measurement": "Cmax concentrations compared with the apoptotic threshold", "setting": "[1]; 200 mg D1, D2", "result": "generally above"},
      {"measurement": "trough concentrations towards the end of the week", "setting": "[1]; 200 mg D1, D2", "result": "below those thought to be required for normal tissue recovery"},
      {"measurement": "Mean accumulation (AUC0-24 ratio)", "setting": "[1]; 200 mg twice weekly (D1, D2), Cycle/Day 1/15", "result": 1.0},
      {"measurement": "Mean accumulation (AUC0-24 ratio)", "setting": "[1]; 200 mg twice weekly (D1, D4), Cycle/Day 1/15", "result": 1.1},
      {"measurement": "plasma exposure compared with range active in preclinical models", "setting": "[1]; both dose levels (140 mg, 200 mg), D1, D4 schedule", "result": "within the range anticipated to be biologically active"},
      {"measurement": "exposure versus dose", "setting": "[1]; daily dosing", "result": "increased approximately proportionally with increasing dose"},
      {"measurement": "time to steady state of plasma concentrations", "setting": "[1]; daily dosing", "result": "≤ 22", "unit": "days"},
      {"measurement": "AUC(0-t)", "setting": "[1]; 140 mg, 140 mg twice weekly (D1, D4), Cycle/Day 1/1, read-out: AUC0-24 [Mean(CV %)]", "result": 10.8, "unit": "µM·h"},
      {"measurement": "AUC(0-t)", "setting": "[1]; 140 mg, 140 mg twice weekly (D1, D4), Cycle/Day 1/1, read-out: AUC0-72 [Mean(CV %)]", "result": 19.7, "unit": "µM·h"},
      {"measurement": "Cmax", "setting": "[1]; [3]", "result": 915, "unit": "nM"},
      {"measurement": "Tmax", "setting": "[1]; [3]", "result": 2, "unit": "h"},
      {"measurement": "half-life", "setting": "[1]; 140 mg, 140 mg twice weekly (D1, D4), Cycle/Day 1/1, read-out: Median t1/2 (range) (converted)", "result": 28, "unit": "h"},
      {"measurement": "AUC(0-t)", "setting": "[1]; 140 mg, 140 mg twice weekly (D1, D4), Cycle/Day 1/15, read-out: AUC0-24 [Mean(CV %)]", "result": 14, "unit": "µM·h"},
      {"measurement": "Cmax", "setting": "[1]; [4]", "result": 935, "unit": "nM"},
      {"measurement": "Tmax", "setting": "[1]; [4]", "result": 2, "unit": "h"},
      {"measurement": "half-life", "setting": "[1]; 140 mg, following a single dose at 140 mg, read-out: median half-life (converted)", "result": "~28", "unit": "h"},
      {"measurement": "AUC(0-t)", "setting": "[1]; 200 mg, 200 mg twice weekly (D1, D2), Cycle/Day 1/1, read-out: AUC0-24 [Mean(CV %)]", "result": 13.9, "unit": "µM·h"},
      {"measurement": "Cmax", "setting": "[1]; 200 mg, 200 mg twice weekly (D1, D2), Cycle/Day 1/1", "result": 1580, "unit": "nM"},
      {"measurement": "Tmax", "setting": "[1]; 200 mg, 200 mg twice weekly (D1, D2), Cycle/Day 1/1, time post D2 dosing", "result": 3, "unit": "h"},
      {"measurement": "AUC(0-t)", "setting": "[1]; 200 mg, 200 mg twice weekly (D1, D2), Cycle/Day 1/15, read-out: AUC0-24 [Mean(CV %)]", "result": 14.5, "unit": "µM·h"},
      {"measurement": "Cmax", "setting": "[1]; 200 mg, 200 mg twice weekly (D1, D2), Cycle/Day 1/15", "result": 1630, "unit": "nM"},
      {"measurement": "Tmax", "setting": "[1]; 200 mg, 200 mg twice weekly (D1, D2), Cycle/Day 1/15, time post D16 dosing", "result": 2, "unit": "h"},
      {"measurement": "AUC(0-t)", "setting": "[1]; 200 mg, 200 mg twice weekly (D1, D4), Cycle/Day 1/1, read-out: AUC0-24 [Mean(CV %)]", "result": 17.5, "unit": "µM·h"},
      {"measurement": "AUC(0-t)", "setting": "[1]; 200 mg, 200 mg twice weekly (D1, D4), Cycle/Day 1/1, read-out: AUC0-72 [Mean(CV %)]", "result": 39, "unit": "µM·h"},
      {"measurement": "Cmax", "setting": "[1]; [5]", "result": 1380, "unit": "nM"},
      {"measurement": "Tmax", "setting": "[1]; [5]", "result": 2, "unit": "h"},
      {"measurement": "half-life", "setting": "[1]; 200 mg, 200 mg twice weekly (D1, D4), Cycle/Day 1/1, read-out: Median t1/2 (range) (converted)", "result": 33, "unit": "h"},
      {"measurement": "AUC(0-t)", "setting": "[1]; 200 mg, 200 mg twice weekly (D1, D4), Cycle/Day 1/15, read-out: AUC0-24 [Mean(CV %)]", "result": 18.6, "unit": "µM·h"},
      {"measurement": "Cmax", "setting": "[1]; [6]", "result": 1230, "unit": "nM"},
      {"measurement": "Tmax", "setting": "[1]; [6]", "result": 3, "unit": "h"},
      {"measurement": "half-life", "setting": "[1]; 200 mg, following a single dose at 200 mg, read-out: median half-life (converted)", "result": "~33", "unit": "h"},
      {"measurement": "half-life", "setting": "[1]; po, patients, D1, D4 intermittent schedule, read-out: half-life (estimated) (converted)", "result": 25, "unit": "h"},
      {"measurement": "accumulation from day 1 to day 15", "setting": "[1]; twice weekly intermittent dosing (D1, D4 or D1, D2)", "result": "No accumulation"},
      {"measurement": "activated ERK in peripheral blood cells", "setting": "[2]; all dose levels tested", "result": "trend in favor of inhibition"},
      {"measurement": "tumor pERK, before versus on treatment", "setting": "[2]; one patient, no drug for eight days prior to second biopsy, little pre-treatment phosphorylation", "result": "no reduction"},
      {"measurement": "phosphorylation of ERK in tumor, before versus on treatment", "setting": "[2]; three cases, drug at steady state, daily dosing", "result": "reduction in phosphorylation of cytoplasmic and nuclear ERK"},
      {"measurement": "effect on proliferation", "setting": "proliferation", "result": "inhibits"}
    ]}
  ]
}
